Laboratory results published in publication PMC9297976 (Journal of Applied Toxicology, 2021).
pEC50, pIC50: −log10 of the molar value.

What was measured:
medaka Esr1 (mEsr1) [1] = target: T1, medaka Esr1 (mEsr1) (Oryzias latipes, UniProt P50241); test: Medaka Esr1 reporter gene assay, antagonist assay; format: cell-based, Japanese medaka (Oryzias latipes); settings: E2 spiked at 1.0 nM (B); MAC = 1.0 × 10^−4 M
T1 sequence (P50241 1-620): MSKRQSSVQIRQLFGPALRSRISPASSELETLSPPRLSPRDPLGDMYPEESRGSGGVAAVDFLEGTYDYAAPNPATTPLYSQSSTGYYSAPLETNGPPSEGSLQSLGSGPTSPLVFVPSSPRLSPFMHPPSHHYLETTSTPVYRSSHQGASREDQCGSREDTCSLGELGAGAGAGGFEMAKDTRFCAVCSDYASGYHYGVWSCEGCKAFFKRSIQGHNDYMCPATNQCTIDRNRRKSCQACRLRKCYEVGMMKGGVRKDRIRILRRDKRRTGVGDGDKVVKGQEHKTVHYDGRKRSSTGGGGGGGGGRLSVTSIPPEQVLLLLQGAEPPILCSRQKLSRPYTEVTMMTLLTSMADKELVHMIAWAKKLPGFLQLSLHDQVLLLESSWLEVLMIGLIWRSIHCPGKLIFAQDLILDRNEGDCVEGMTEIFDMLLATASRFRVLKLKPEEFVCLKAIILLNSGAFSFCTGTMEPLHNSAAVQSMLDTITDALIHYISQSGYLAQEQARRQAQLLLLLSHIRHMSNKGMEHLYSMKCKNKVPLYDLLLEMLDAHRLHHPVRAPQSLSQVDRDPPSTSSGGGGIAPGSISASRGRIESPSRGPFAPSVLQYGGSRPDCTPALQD

medaka ARβ (mArβ) [2] = target: T2, medaka ARβ (mArβ) (Oryzias latipes, UniProt D1MV73); test: Medaka ARβ reporter gene assay, agonist assay; format: cell-based, Japanese medaka (Oryzias latipes)
T2 sequence (D1MV73 1-744): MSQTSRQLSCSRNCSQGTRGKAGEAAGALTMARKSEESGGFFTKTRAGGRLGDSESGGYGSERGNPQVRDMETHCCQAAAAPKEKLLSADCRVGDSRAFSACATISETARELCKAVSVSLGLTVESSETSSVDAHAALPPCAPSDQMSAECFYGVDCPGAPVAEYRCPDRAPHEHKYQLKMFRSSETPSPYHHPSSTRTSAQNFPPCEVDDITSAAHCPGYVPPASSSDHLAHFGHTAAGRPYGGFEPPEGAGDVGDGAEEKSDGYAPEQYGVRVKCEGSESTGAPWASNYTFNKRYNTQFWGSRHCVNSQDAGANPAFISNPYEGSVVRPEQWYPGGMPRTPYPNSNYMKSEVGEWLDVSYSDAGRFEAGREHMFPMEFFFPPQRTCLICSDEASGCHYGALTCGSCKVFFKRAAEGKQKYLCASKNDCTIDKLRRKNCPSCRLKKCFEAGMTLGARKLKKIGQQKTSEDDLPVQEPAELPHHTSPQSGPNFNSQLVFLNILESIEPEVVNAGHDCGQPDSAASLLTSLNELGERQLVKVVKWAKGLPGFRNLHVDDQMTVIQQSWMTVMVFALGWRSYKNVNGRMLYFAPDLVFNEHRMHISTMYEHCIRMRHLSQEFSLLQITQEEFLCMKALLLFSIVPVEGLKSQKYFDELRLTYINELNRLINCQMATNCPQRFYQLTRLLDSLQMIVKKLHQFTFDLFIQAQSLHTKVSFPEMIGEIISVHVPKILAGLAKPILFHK

[3] = system: Japanese medaka (Oryzias latipes); test: Fish Short‐Term Reproduction Assay; format: in vivo; settings: for GSI Female / GSI Male / HSI Female / HSI Male / Length Female / Length Male / Weight Female / Weight Male: completion of exposure
medaka ARβ (mArβ) [4] = target: T2, medaka ARβ (mArβ); test: Medaka ARβ reporter gene assay, antagonist assay; format: cell-based, Japanese medaka (Oryzias latipes)
medaka Esr1 (mEsr1) [5] = target: T1, medaka Esr1 (mEsr1); test: cell-based; parameters: species or system Japanese medaka (Oryzias latipes)
[6] = measured concentration 0.0943 mg/L
[7] = measured concentration 0.939 mg/L
[8] = measured concentration 9.53 mg/L

Q: What does the source list for `O=C(c1ccc(O)cc1O)c1ccc(O)cc1O` [BP2, Benzophenone‐2]?
A: Antagonistic activity (medaka Esr1 (mEsr1) [1]): NE (MAC = 1.0 × 10^−4 M)^(B); Agonistic activity PC10 (medaka ARβ (mArβ) [2]; HepG2 cells, concentration with 10% of maximum activity of 11KT): PC10 = 1.2 × 10^−5 M; Agonistic activity on mArβ (in words) (medaka ARβ (mArβ) [2]; only PC10 and not EC50 could be estimated): positive agonistic activity; Fertility rate ([3]; 0.0943 mg/L measured, 21 d): 95 ± 2.3%; Hepatic VTG, female ([3]; 0.0943 mg/L measured, 21 d): 354 ± 105 ng/mg‐liver; Hepatic VTG, male ([3]; 0.0943 mg/L measured, 21 d): 0.5 ± 0.0 ng/mg‐liver; Mortality ([3]; 0.0943 mg/L measured, 21 d): 0.0%; Mortality, number of dead fish ([3]; 0.0943 mg/L measured, 21 d): 0; Number of fertilized eggs (per female per day) ([3]; 0.0943 mg/L measured, 21 d): 15 ± 2.2; Number of total eggs (per female per day) ([3]; 0.0943 mg/L measured, 21 d): 15 ± 2.3; SSC female (joint plates with papillary processes) ([3]; 0.0943 mg/L measured, 21 d): 0 ± 0; SSC male (joint plates with papillary processes) ([3]; 0.0943 mg/L measured, 21 d): 73 ± 7.0; Fertility rate ([3]; 0.939 mg/L measured, 21 d): 94 ± 2.5%; Hepatic VTG, female ([3]; 0.939 mg/L measured, 21 d): 398 ± 230 ng/mg‐liver; Hepatic VTG, male ([3]; 0.939 mg/L measured, 21 d): 0.9 ± 0.5 ng/mg‐liver; Mortality ([3]; 0.939 mg/L measured, 21 d): 4.2%; Mortality, number of dead fish ([3]; 0.939 mg/L measured, 21 d): 1; Number of fertilized eggs (per female per day) ([3]; 0.939 mg/L measured, 21 d): 14 ± 2.3; Number of total eggs (per female per day) ([3]; 0.939 mg/L measured, 21 d): 15 ± 2.7; SSC female (joint plates with papillary processes) ([3]; 0.939 mg/L measured, 21 d): 0 ± 0; SSC male (joint plates with papillary processes) ([3]; 0.939 mg/L measured, 21 d): 77 ± 20; Hepatic VTG, female ([3]; 9.53 mg/L measured, 21 d): 449 ± 114 ng/mg‐liver; Mortality ([3]; 9.53 mg/L measured, 21 d): 0.0%; Mortality, number of dead fish ([3]; 9.53 mg/L measured, 21 d): 0; Number of fertilized eggs (per female per day) ([3]; 9.53 mg/L measured, 21 d): 13 ± 1.7; Number of total eggs (per female per day) ([3]; 9.53 mg/L measured, 21 d): 14 ± 1.7; SSC female (joint plates with papillary processes) ([3]; 9.53 mg/L measured, 21 d): 0 ± 0; SSC male (joint plates with papillary processes) ([3]; 9.53 mg/L measured, 21 d): 79 ± 8.4; Hepatic VTG, male ([3]; 9.53 mg/L measured, 21 d, sig. ↑ vs control): 393 ± 306 ng/mg‐liver; Fertility rate ([3]; 9.53 mg/L measured, 21 d, sig. ↓ vs control): 90 ± 3.5%; LOEC, elevated hepatic VTG in males ([3]; 21 d): 9.53 mg/L; LOECmVTG ([3]; LOEC on VTG induction in males): 9,530 μg/L; LOECREPRO ([3]; LOEC on reproduction (fecundity and/or fertility)): 9,530 μg/L; LOECREPRO (reduction in fecundity or fertility) ([3]; concentrations without overt toxicity): 9,530 μg/L; LOECTOX ([3]; lowest observed effect concentration on mortality): ND (>9,530) μg/L; GSI Female [3, 6]: 6.9 ± 0.3%; GSI Male [3, 6]: 1.07 ± 0.14%; HSI Female [3, 6]: 2.8 ± 0.87%; HSI Male [3, 6]: 1.8 ± 0.37%; Length Female [3, 6]: 30.2 ± 0.4 mm; Length Male [3, 6]: 30.8 ± 1.2 mm; Weight Female [3, 6]: 296 ± 16 mg; Weight Male [3, 6]: 291 ± 27 mg; GSI Female [3, 7]: 7.6 ± 1.2%; GSI Male [3, 7]: 0.69 ± 0.15%; HSI Female [3, 7]: 3.1 ± 0.68%; HSI Male [3, 7]: 1.9 ± 0.24%; Length Female [3, 7]: 30.3 ± 1.0 mm; Length Male [3, 7]: 30.6 ± 1.1 mm; Weight Female [3, 7]: 304 ± 48 mg; Weight Male [3, 7]: 290 ± 32 mg; GSI Female [3, 8]: 8.6 ± 0.4%; GSI Male [3, 8]: 0.79 ± 0.23%; HSI Female [3, 8]: 3.5 ± 0.58%; HSI Male [3, 8]: 2.0 ± 0.55%; Length Female [3, 8]: 30.4 ± 0.5 mm; Length Male [3, 8]: 31.9 ± 1.1 mm; Weight Female [3, 8]: 295 ± 8.0 mg; Weight Male [3, 8]: 327 ± 34 mg; In vitro positive: aAr (medaka ARβ (mArβ) [4]; mode of action in which IC50 or IC30 was obtained in RGA): aAr; pIC50 (medaka ARβ (mArβ) [4]; read-out: Antagonistic activity IC50, 11‐KT spiked at 50 nM (D)): 4.40; Antagonistic activity on mArβ (in words) (medaka ARβ (mArβ) [4]; transcriptional activity on mArβ by 11KT): inhibitory potency; In vitro positive: Esr (medaka Esr1 (mEsr1) [5]; mode of action in which EC50 or PC10 was obtained in RGA): Esr; pEC50 (medaka Esr1 (mEsr1) [5]; read-out: Agonistic activity EC50, HEK293 cells): 5.80
